Here are results for three compounds from publication PMC10290124 (Nature Communications, 2023).

The target in experiment [1] is T1, human TRPV4 (hTRPV4) (Homo sapiens, UniProt Q9HBA0).
Experiment [2] deals with T1, human TRPV4 (hTRPV4). Briefly: cryo-EM structure ([…] Å, open state); EC50 from Fura-2 calcium imaging in HEK […] cells. The experiment is classed as cell-based. Set-up: with RhoA.
Another experiment deals with T2, RhoA (Homo sapiens, UniProt P61586).
T2 construct: endogenous RhoA from HEK 293S cells, co-purified with hTRPV4; with TRPV4
Briefly: cryo-EM structure of the hTRPV4-RhoA complex (ARD-RhoA local refinement, […] Å). The class given is binding.

T1 sequence (Q9HBA0 whole entry): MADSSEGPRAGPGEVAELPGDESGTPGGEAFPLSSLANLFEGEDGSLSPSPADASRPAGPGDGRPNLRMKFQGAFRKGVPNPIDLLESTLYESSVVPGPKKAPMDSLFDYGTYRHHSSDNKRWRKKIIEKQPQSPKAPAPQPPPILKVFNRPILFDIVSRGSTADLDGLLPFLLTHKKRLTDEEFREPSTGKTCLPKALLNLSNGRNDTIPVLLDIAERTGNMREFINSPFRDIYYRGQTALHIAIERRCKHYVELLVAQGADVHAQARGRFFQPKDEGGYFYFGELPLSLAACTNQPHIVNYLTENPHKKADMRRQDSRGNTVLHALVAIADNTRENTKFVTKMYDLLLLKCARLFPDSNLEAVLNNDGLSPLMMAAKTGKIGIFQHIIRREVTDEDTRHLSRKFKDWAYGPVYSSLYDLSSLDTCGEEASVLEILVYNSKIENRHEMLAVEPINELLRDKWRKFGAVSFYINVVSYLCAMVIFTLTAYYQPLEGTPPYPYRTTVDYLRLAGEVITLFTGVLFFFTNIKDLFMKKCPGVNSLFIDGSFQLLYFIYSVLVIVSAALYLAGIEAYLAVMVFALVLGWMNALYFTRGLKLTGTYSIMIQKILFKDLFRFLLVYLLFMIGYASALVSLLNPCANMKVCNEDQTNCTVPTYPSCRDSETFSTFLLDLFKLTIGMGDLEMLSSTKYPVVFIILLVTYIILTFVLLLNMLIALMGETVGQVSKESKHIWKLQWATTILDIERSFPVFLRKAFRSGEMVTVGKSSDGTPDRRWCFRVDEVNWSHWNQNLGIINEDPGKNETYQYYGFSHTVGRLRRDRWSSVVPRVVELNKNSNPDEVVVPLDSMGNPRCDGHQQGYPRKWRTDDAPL
T1 sequence (P61586 1-190 partner): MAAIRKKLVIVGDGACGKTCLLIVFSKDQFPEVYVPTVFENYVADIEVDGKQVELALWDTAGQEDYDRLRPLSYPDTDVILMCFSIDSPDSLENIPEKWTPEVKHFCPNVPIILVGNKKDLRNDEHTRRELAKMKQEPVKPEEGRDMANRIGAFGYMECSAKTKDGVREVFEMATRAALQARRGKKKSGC
T2 sequence (P61586 1-190): as the sequence (P61586 1-190 partner) above
T2 sequence (Q9HBA0 whole entry partner): as the sequence (Q9HBA0 whole entry) above

On to `Cc1c(C(=O)Nc2cccc(C(F)(F)F)c2)cc(-c2ccccc2)n1CCCN1CCOCC1` [HC-067047], for which, at human TRPV4 (hTRPV4) [1], the IC50 worked out at 25 ± 6.2 nM.
`CCCCCCCCCC(=O)O[C@@H]1[C@@H](C)[C@@]2(O)[C@@H](C=C(CO)C[C@@]3(O)C(=O)C(C)=C[C@@H]23)[C@@H]2C(C)(C)[C@]12OC(=O)CCCCCCCCC` [4α-PDD, 4α-phorbol 12,13-didecanoate]: the EC50 on human TRPV4 (hTRPV4) [2] amounted to 450 ± 39 nM.
On to `Nc1nc2c(ncn2[C@@H]2O[C@H](CO[P@](=O)(O)OP(=O)(O)O)[C@@H](O)[C@H]2O)c(=O)[nH]1` [GDP, guanosine diphosphate], for which the “cryo-EM structure of the hTRPV4-RhoA complex (ARD-RhoA local refinement, 3.49 Å)” value on RhoA is given as “unambiguously identify the endogenous molecule of guanosine diphosphate (GDP) bound in the RhoA ligand-binding pocket”.

The term IC50 denotes the concentration that gives 50% inhibition. A word on the EC50: it is the midpoint of the concentration-response curve.
